Test results published in the NIST ThermoML archive (doi:10.1021/je700428f).

Experiments:
[1] = 101 kPa, Liquid; for viscosity: Capillary tube (Ostwald / Ubbelohde) method
[2] = xn = mol fraction of the nth substance listed; details: 101 kPa, Liquid

COC(C)(C)C [2-methoxy-2-methylpropane]
[1]
Details | mass density [kg/m3]
273.15 K | 761.34
278.15 K | 756.14
283.15 K | 751.02
288.15 K | 745.85
293.15 K | 740.65
298.15 K | 735.4
303.15 K | 730.1
308.15 K | 724.82
313.15 K | 719.42
318.15 K | 713.96

COC(C)(C)C [2-methoxy-2-methylpropane] + CCCCCCCCC
[2], x1 = 1
Details | mass density [kg/m3]
273.15 K | 761.34
278.15 K | 756.14
283.15 K | 751.02
288.15 K | 745.85
293.15 K | 740.65
298.15 K | 735.4
303.15 K | 730.1
308.15 K | 724.82
313.15 K | 719.42
318.15 K | 713.96

CCCCCCCCCC [decane]
[1]
Details | mass density [kg/m3]
273.15 K | 745.374
278.15 K | 741.257
283.15 K | 737.502
288.15 K | 733.733
293.15 K | 729.958
298.15 K | 726.174
303.15 K | 722.377
308.15 K | 718.573
313.15 K | 714.753
318.15 K | 710.92
323.15 K | 707.074
328.15 K | 703.213
333.15 K | 699.334
338.15 K | 695.439
343.15 K | 691.522
348.15 K | 687.587
353.15 K | 683.631
358.15 K | 679.651
363.15 K | 675.648

CCCCCCCCCC [decane] + COC(C)(C)C
[2], x2 = 0
Details | mass density [kg/m3]
273.15 K | 745.374
278.15 K | 741.257
283.15 K | 737.502
288.15 K | 733.733
293.15 K | 729.958
298.15 K | 726.174
303.15 K | 722.377
308.15 K | 718.573
313.15 K | 714.753
318.15 K | 710.92
323.15 K | 707.074
328.15 K | 703.213
333.15 K | 699.334
338.15 K | 695.439
343.15 K | 691.522
348.15 K | 687.587
353.15 K | 683.631
358.15 K | 679.651
363.15 K | 675.648

CCCCCCCCC [nonane]
[1]
Details | mass density [kg/m3] | viscosity [mPa·s]
273.15 K | 733.184 | 0.972
278.15 K | 729.335 | 0.896
283.15 K | 725.473 | 0.828
288.15 K | 721.603 | 0.768
293.15 K | 717.725 | 0.716
298.15 K | 713.834 | 0.669
303.15 K | 709.929 | 0.628
308.15 K | 706.011 | 0.59
313.15 K | 702.076 | 0.555
318.15 K | 698.124 | 0.522
323.15 K | 694.151 | 0.493
328.15 K | 690.165 | 0.466
333.15 K | 686.154 | 0.442
338.15 K | 682.116 | 0.42
343.15 K | 678.06 | 0.399
348.15 K | 673.979 | 0.38
353.15 K | 669.872 | 0.362
358.15 K | 665.73 | 0.346
363.15 K | 661.557 | –
